Source: PubChem BioAssay (NCI)
Where “and” joins values, the source holds several entries; their conditions need not be identical. Identical values can stand only once.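 Five concentrations, 48 hours, 96-well plates. Abbreviation: GI50, concentration required for 50% inhibition of growth. The concentration for full growth arrest is given as TGI.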

Experiments:
Assay in all cases: NCI anticancer screen, dose series, 48 h
[1] = system: TK-10 renal
[2] = system: OVCAR-8 ovarian
[3] = system: HT29 colon
[4] = system: SF-268 CNS
[5] = system: SK-OV-3 ovarian
[6] = system: A498 renal
[7] = system: IGROV1 ovarian
[8] = system: RPMI-8226 leukemia
[9] = system: UACC-257 melanoma
[10] = system: HS 578T breast

SMILES	TGI [1]	TGI [2]	TGI [3]	TGI [4]	TGI [5]	TGI [6]	TGI [7]	TGI [8]	TGI [9]	TGI [10]	GI50 [4]	GI50 [7]	GI50 [1]	GI50 [2]	GI50 [3]	GI50 [8]	GI50 [9]
CCON1CC(C(=O)OC)=C(O)C1=O	> 100 µM	> 100 µM	> 100 µM	> 100 µM	> 100 µM	> 100 µM	> 100 µM	> 100 µM	> 100 µM	> 100 µM							
N#Cc1nc(NC(=O)c2ccccc2C(=O)O)c(C#N)[nH]1	> 100 µM	> 100 µM	> 100 µM	> 100 µM	> 100 µM	> 100 µM	> 100 µM	> 100 µM	> 100 µM	> 100 µM							
COC(=O)c1cc(C#N)[nH]c1-c1cc(Br)cs1	57.1 µM	43.7 µM	31.7 µM	51 µM	46 µM	18.4 µM	35.3 µM	51.2 µM	28.9 µM	45.4 µM							
CC(=O)O[C@H]1CCc2c(cc(N)c3c2C(=O)C[C@]2(C)C([C@H](C)CCCC(C)C)CCC32C)C1(C)C (some centres not stated)	> 100 µM	> 100 µM	> 100 µM	> 100 µM	> 100 µM	> 100 µM	> 100 µM	> 100 µM	> 100 µM	> 100 µM							
CC(NC(=O)N(C)C)NC(=O)N(C)C	> 10 µM	> 10 µM	> 10 µM	> 10 µM	> 10 µM	> 10 µM	> 10 µM	> 10 µM	> 10 µM	> 10 µM							
CC(C(=O)O)C(C)(O)C(=O)O (configuration not stated)	> 100 µM	> 100 µM	> 100 µM	> 100 µM	> 100 µM	> 100 µM	> 100 µM	> 100 µM	> 100 µM	> 100 µM							
OCc1ccc2c(c1)CC1(Cc3ccc(/C=N/O)cc3C1)C2 (configuration not stated)	> 100 µM	35.2 µM	11.4 µM	> 100 µM	> 100 µM	96.5 µM	> 100 µM	28.6 µM	18.7 µM	> 26.4 µM							
C\C(=N/N=C1/C(=C\N(C)C)C(=O)NC(=O)N1C)c1ccc(Cl)cc1	> 100 µM	> 100 µM	> 100 µM	> 100 µM	> 100 µM	> 100 µM	> 100 µM	> 100 µM	> 100 µM	> 100 µM							
CNC(=O)CCCNC(=O)CCCC(=O)N(C)C	> 100 µM	> 100 µM	> 100 µM	> 100 µM	> 100 µM	> 100 µM	> 100 µM	> 100 µM	> 100 µM	> 100 µM							
C#CCN(Cc1ccc2nc(OC)c(OC)nc2c1)c1cc(OC)c(OC)c(OC)c1	> 100 µM	64.3 µM	72 µM	> 94.1 µM	> 100 µM	> 84.5 µM	> 69.6 µM	28.3 µM	> 100 µM	79.1 µM							
Cn1c2ccccc2c(=O)c2c(O)cc3c(c21)C=CC1(CCCCC1)O3	> 10 µM	> 10 µM	> 10 µM	> 10 µM	> 10 µM	> 10 µM	> 10 µM	> 10 µM	> 10 µM	> 10 µM							
C[C@]12CC[C@@H]3c4cc(I)c(O)cc4CC[C@H]3[C@@H]1CC[C@@H]2O	27.6 µM	40.2 µM	34.3 µM	58.5 µM	16.4 µM	24.3 µM	20.5 µM	37.7 µM	23.5 µM	8.6 µM							
C=Cc1ccccc1C1(O)C=CC(OC)(OC)C=C1	10.7 µM	3.65 µM	11.7 µM	33.9 µM	29.3 µM	41 µM	27 µM	45.2 µM	24.1 µM	> 100 µM							
O=C1NCN(c2ccccc2)C12CCN(CCCN1CCN(CCOC(c3ccc(F)cc3)c3ccc(F)cc3)CC1)CC2	3.2 µM	4.82 µM	3.97 µM	3.79 µM	4.61 µM	3.35 µM	4.24 µM	4.95 µM	3.44 µM	4.67 µM							
C1=C\SS/C=C\SS/1	> 100 µM	49.8 µM	35.6 µM	> 100 µM	> 100 µM	> 100 µM	62.5 µM	71.8 µM	> 100 µM	> 100 µM							
O=C1c2ccccc2NC(=S)[C@@H]2CCCN12	> 100 µM	> 100 µM	> 100 µM	> 100 µM	> 100 µM	> 100 µM	> 100 µM	> 100 µM	> 100 µM	> 100 µM							
CC(=O)c1cnc2oc3ccc(O)cc3c2c1-c1ccccc1	> 100 µM	> 100 µM	> 100 µM	> 100 µM	45.4 µM	88.6 µM	45 µM	> 100 µM	> 100 µM	> 100 µM	27.7 µM	5.04 µM					
O=C(c1ccncc1)C1C(=O)c2ccccc2C1C1(O)c2ccccc2CC1C(O)c1ccncc1 (configuration not stated)	> 100 µM	> 100 µM	> 100 µM	> 100 µM	> 100 µM	> 100 µM	> 100 µM	90.2 µM	> 100 µM	> 100 µM							

SMILES	TGI [1]	TGI [2]	TGI [3]	TGI [4]	TGI [5]	TGI [6]	TGI [7]	TGI [8]	TGI [9]	TGI [10]	GI50 [4]	GI50 [7]	GI50 [1]	GI50 [2]	GI50 [3]	GI50 [8]	GI50 [9]
CC(=O)OC(Cn1cncn1)(Cn1cncn1)c1ccc(Cl)cc1Cl	> 100 µM	> 100 µM	> 100 µM	> 100 µM	> 100 µM	> 100 µM	> 100 µM	> 100 µM	> 100 µM	> 100 µM							
[O-]/[N+](=C\c1ccccc1OC(=S)S)c1ccc(Cl)cc1	> 100 µM	30.2 µM	> 100 µM	77.7 µM	> 100 µM	> 100 µM	30.7 µM	> 100 µM	> 100 µM	> 100 µM							
Cc1c2c(OCC3CCCCO3)nn(C)c(=O)c2c(C)n1-c1ccccc1 (configuration not stated)	45.4 µM	42.2 µM	91.4 µM	30.7 µM	34.8 µM	28.3 µM	37.8 µM	> 100 µM	34.9 µM	46.6 µM							
COC(=O)C1(Cc2ccc3c(c2)CCC3)Cc2ccccc2C1	> 100 µM	> 100 µM	65 µM	> 100 µM	> 100 µM	> 100 µM	> 100 µM	54.6 µM	> 100 µM	> 100 µM							
CC(=O)c1ccc2c(c1)CC1(C2)Cc2ccccc2C1=O (configuration not stated)	91.4 µM	> 100 µM	43.8 µM	> 100 µM	> 100 µM	> 100 µM	> 100 µM	> 100 µM	50.8 µM	> 100 µM							
CC(C)OC(=O)OCSc1ccccc1N=Cc1cccc([N+](=O)[O-])c1	> 10 µM	> 10 µM	> 10 µM	> 10 µM	> 10 µM	> 10 µM	> 10 µM	> 10 µM	> 10 µM	> 10 µM							
NS(=O)(=O)c1cccc(NC(=S)NC(=O)Nc2ccc(Cl)c(Cl)c2)c1	> 100 µM	32.5 µM	86.6 µM	56.4 µM	54.1 µM	26.3 µM	45.4 µM	41.7 µM	> 100 µM	45.6 µM							
CCOC(=O)c1cn2c(n1)sc1cc(Cl)cc(Cl)c12	> 100 µM	> 100 µM	> 100 µM	> 100 µM	> 100 µM	> 100 µM	> 100 µM	> 100 µM	> 100 µM	> 100 µM							
C=C(CN(C)C)C(=O)c1ccccc1[N+](=O)[O-]	34.3 µM and 26.3 µM	40.9 µM and 32 µM	39.1 µM and 16.1 µM	51.4 µM and 58.3 µM	> 86.8 µM	> 92 µM	52.7 µM		29.7 µM and 32.8 µM	77.1 µM	20.7 µM		12.9 µM	6.55 µM	3.31 µM	15.1 µM and 2.55 µM	14.9 µM
Cc1ccc(C2=CC(=O)/C(=C\C(=O)c3ccc(Cl)cc3)O2)cc1	9.67 µM	14.6 µM	15.1 µM	36.3 µM	56.7 µM	71.8 µM	34.2 µM	6.31 µM	4.75 µM	55.1 µM							
O=C(Nc1noc(-c2ccccc2)n1)c1ccccc1CNc1noc(-c2ccccc2)n1	> 100 µM	> 100 µM	> 100 µM	> 100 µM	> 100 µM	> 100 µM	> 100 µM	> 100 µM	> 100 µM	> 100 µM							
S=c1cc(-c2ccc3c(c2)OCO3)s[nH]1	> 100 µM	> 100 µM	> 100 µM	> 100 µM	> 100 µM	> 100 µM	> 100 µM	> 100 µM	> 100 µM	> 100 µM							
COC1CC(OC2CCC3(C)C(=CCC4C3C(OC(C)=O)C(OC(=O)CC(C)C)C3(C)C(C(C)=O)CCC43O)C2)OC(C)C1OC1CC(OC)C(OC2CC(OC)C(OC3OC(C)C(OC4OC(CO)C(O)C(O)C4O)C(OC)C3O)C(C)O2)C(C)O1 (configuration not stated)	> 75 µM	> 75 µM	> 75 µM	> 75 µM	> 75 µM	> 75 µM	> 75 µM	> 75 µM	> 75 µM	> 75 µM							
CCOC(=O)/C=C(\C(=O)OCC)n1ccc(=O)n(Cc2cn(COCCOC(C)=O)nn2)c1=O	29.2 µM	31.1 µM	30.8 µM	> 57.6 µM	> 100 µM	> 69.5 µM	44.3 µM	55.6 µM	47.2 µM	63.6 µM							
NC(=O)N/N=C1\CC2C3CC4C2C4C13 (configuration not stated)	> 100 µM	> 100 µM	> 100 µM	> 100 µM	> 100 µM	> 100 µM	> 100 µM	> 100 µM	> 100 µM	> 100 µM							
COc1cc(/C=C/C=C2\CC/C(=C\C=C\c3ccc(O)c(OC)c3)C2=O)ccc1O	> 100 µM	> 100 µM	> 100 µM	> 100 µM	> 100 µM	> 100 µM	> 100 µM	> 100 µM	> 100 µM	> 100 µM							
O=[N+]([O-])c1ccc2c(c1)C1=NN(c3ccccc3)C(c3ccccc3Br)C1CCC2 (configuration not stated)	> 50 µM	> 50 µM	> 50 µM	> 50 µM	> 50 µM	> 50 µM	> 50 µM	48.4 µM	> 50 µM	> 50 µM							
